Assay results published in US10059655B2, “Lipids and lipid compositions for the delivery of active agents” (priority 2013, dated 2018).

Key:
[1] = Percentage of encapsulated RNA and RNA concentration of replicon liposomes (Quant-iT RiboGreen); assay type: physicochemical; conditions: for %E (% entrapment) 1st IM / Conc (Concentration of RNA) 1st IM: RSV-F replicon RNA LNP prepared for 1st immunization; for %E (% entrapment) 2nd IM / Conc (Concentration of RNA) 2nd IM: RSV-F replicon RNA LNP prepared for 2nd immunization
Method: RNA was encapsulated in liposomes made essentially by the method of Geall et al. (2012) PNAS vol. 109 (36): 14604-14609, Jeffs et al. (2005) Pharmaceutical Research 22 (3):362-372, and Maurer et al. (2001) Biophysical Journal, 80: 2310-2326 The liposomes were made of 10% DSPC (zwitterionic), 40% cationic lipid, 48% cholesterol and 2% PEG-conjugated DMG (2 kDa PEG). These proportions refer to the % moles in the total liposome.
Briefly, lipids were dissolved in ethanol (2 ml), a RNA replicon was dissolved in buffer (2 ml, 100 mM sodium citrate, pH 6) and these were mixed with 2 ml of buffer followed by 1 hour of equilibration. The mixture was then dialized overnight against 1×PBS. The resulting product contained liposomes, with ˜70-95% encapsulation efficiency. For in vitro and in vivo experiments formulations were diluted to the required RNA concentration with 1×PBS.
The percentage of encapsulated RNA and RNA concentration were determined by Quant-iT RiboGreen RNA reagent kit (Invitrogen), following manufacturer's instructions. The ribosomal RNA standard provided in the kit was used to generate a standard curve. Liposomes were diluted 10× or 100× in 1×TE buffer (from kit) before addition of the dye. Separately, liposomes were diluted 10× or 100× in 1×TE buffer containing 0.5% Triton X before addition of the dye (to disrupt the liposomes and thus to assay total RNA). Thereafter an equal amount of dye was added to each solution and then ˜180 μL of each solution after dye addition was loaded in duplicate into a 96 well tissue culture plate. The fluorescence (Ex 485 nm, Em 528 nm) was read on a microplate reader. All liposome formulations were dosed in vivo based on the encapsulated amount of RNA.
% entrapment (% E), Concentration of RNA (Conc), particle size measured by DLS, and polydispersity reported by DLS of LNPs prepared with different cationic lipids

[2] = system: mEPO; assay: Mouse EPO ELISA after IV injection of encapsulated mEPO mRNA; assay type: in vivo; conditions: 0.2 mpk, ob/ob mice, @ 24 h
Method: A rat anti-mouse Erythropoietin antibody is coated on 384-well white microtiter plates overnight, then blocked for assay. Then, plasma samples are diluted in a casein-based sample diluent and incubated on the plate with buffer controls and mouse EPO standards. The plate is then washed to remove unbound material. A biotinylated rat anti-mouse Erythropoietin antibody is then added to the plate to detect mouse EPO bound by the capture antibody. The plate is washed again and a streptavidin-conjugated horseradish peroxidase reagent is incubated on the plate. A third wash step is performed and a chemiluminescent reagent is added to the plate and immediately read by a capable plate reader using all wavelengths and a 50 millisecond integration time. Unknown samples are interpolated off the mouse EPO standard curve.

[3] = system: hLeptin; assay: Human leptin in mouse plasma (ELISA) after IV tail vein injection of encapsulated leptin mRNA; assay type: in vivo; conditions: 0.4 mpk, C57 mice, @ 24 h
Method: (§1) Human leptin in mouse plasma was measured by ELISA. Antibodies purchased from the R&D Systems duoset (Cat# DY398E, part#840279 for capture antibody and part#840280 for detection antibody) were reconstituted using PBS and titered, again using PBS. The capture antibody was coated at 4 ug/ml in 30 ul/well on a white Nunc® Maxisorp 384 well plate (Cat#460372). After an overnight incubation at room temperature the capture antibody was aspirated and the plate blocked for 2 hours at room temperature with 90 ul/well of KPL milk blocker (Cat#50-82-00). Once the incubation was completed the plate was aspirated and recombinant standards and samples were added to the plate at 30 ul/well for 2 hours at 37° C. while shaking at 600 rpm. Sample/standard dilutions were made using casein sample diluent. Washing/aspiration 3 times with 100 ul/well followed, using Teknova plate wash solution (Cat# P1192). […] The plate was quickly read using a SpectramaxM5 plate reader with a 50 ms integration time. […]
Before the tail vein injection, mouse body weights were recorded and diet weighted, with mice grouped according to their body weights. […]
On day 0, animals were weighed and sorted according to average body weight. Mice were dosed, and food intake (FI) was recorded, on each of days 1-7 and days 9, 11, and 16.

[4] = system: hLeptin; assay: Human leptin in mouse plasma (ELISA) after subcutaneous injection of encapsulated leptin mRNA; assay type: in vivo; conditions: C57 mice
Method: as §1
Prior to subcutaneous injection, mouse body weights were recorded and diet weighted, with mice grouped according to their body weights. […]
On day 0, animals were weighed and sorted according to average body weight. ice were dosed at 9 AM and blood was taken at 9 AM on day 0. Blood was also taken at 9 AM on each of days 1 and 2 and assessed for leptin protein levels. Body weight and food intake were also recorded.

Row | Compound | %E (% entrapment) 1st IM [1] [%] | Conc (Concentration of RNA) 1st IM [1] [ng/mL] | %E (% entrapment) 2nd IM [1] [%] | Conc (Concentration of RNA) 2nd IM [1] [ng/mL] | Expression of protein following IV injection of encapsulated mRNA: mEPO [2] [ng/mL] | Expression of protein following IV injection of encapsulated mRNA: hLeptin [3] [ng/mL] | Expression of protein following SC injection of encapsulated mRNA: hLeptin ([4]; 0.4 mpk) [ng/mL] | Expression of protein following SC injection of encapsulated mRNA: hLeptin ([4]; 0.6 mpk) [ng/mL]
1 | CCCCC/C=C\C/C=C\CCCCCCCC(=O)OCC(COC(=O)CCCCCCC/C=C\C/C=C\CCCCC)COC(=O)C1(C)CCN(C)C1 (stereo not shown) [Example 1, (9Z,9′Z,12Z,12′Z)-2-(((1,3-dimethylpyrrolidine-3-carbonyl)oxy)methyl)propane-1,3-diyl bis(octadeca-9,12-dienoate)] | 96.21 | 10352 | 91.99 | 11279 | 22.5 | 12.3 | 2.5 | –
2 | CCCCC/C=C\C/C=C\CCCCCCCC(=O)OCC(COC(=O)CCC(OCCCCCCCC)OCCCCCCCC)COC(=O)OCCCN(CC)CC (stereo not shown) [Example 13, (9Z,12Z)-3-((4,4-bis(octyloxy)butanoyl)oxy)-2-((((3-(diethylamino)propoxy)carbonyl)oxy)methyl)propyl octadeca-9,12-dienoate] | – | – | – | – | – | 3.8 | – | –
3 | CCCCC/C=C\C/C=C\CCCCCCCC(=O)OCC(COC(=O)CCC(OCCCCCCCC)OCCCCCCCC)COC(=O)OCC1CCCN(CC)C1 (stereo not shown) [Example 15, (9Z,12Z)-3-((4,4-bis(octyloxy)butanoyl)oxy)-2-(((((1-ethylpiperidin-3-yl)methoxy)carbonyl)oxy)methyl)propyl octadeca-9,12-dienoate] | 94.26 | 10203 | 96.64 | 10091 | – | – | – | 6.2
